Reference: ChEMBL document CHEMBL5576085, “Heterocyclic compounds as xanthine oxidase inhibitors for the management of hyperuricemia: synthetic strategies, structure-activity relationship and molecular docking studies (2018-2024)” (RSC Med Chem, 2024)

Tests used:
[1] = molecular target: T1, Xanthine dehydrogenase/oxidase (Homo sapiens, UniProt P47989); assay: Inhibition of Xanthine oxidase (unknown origin)
[2] = molecular target: T2, Xanthine dehydrogenase/oxidase (Bos taurus, UniProt P80457); assay: Inhibition of bovine serum Xanthine oxidase; type: cell-free
T2 sequence (P80457 whole entry): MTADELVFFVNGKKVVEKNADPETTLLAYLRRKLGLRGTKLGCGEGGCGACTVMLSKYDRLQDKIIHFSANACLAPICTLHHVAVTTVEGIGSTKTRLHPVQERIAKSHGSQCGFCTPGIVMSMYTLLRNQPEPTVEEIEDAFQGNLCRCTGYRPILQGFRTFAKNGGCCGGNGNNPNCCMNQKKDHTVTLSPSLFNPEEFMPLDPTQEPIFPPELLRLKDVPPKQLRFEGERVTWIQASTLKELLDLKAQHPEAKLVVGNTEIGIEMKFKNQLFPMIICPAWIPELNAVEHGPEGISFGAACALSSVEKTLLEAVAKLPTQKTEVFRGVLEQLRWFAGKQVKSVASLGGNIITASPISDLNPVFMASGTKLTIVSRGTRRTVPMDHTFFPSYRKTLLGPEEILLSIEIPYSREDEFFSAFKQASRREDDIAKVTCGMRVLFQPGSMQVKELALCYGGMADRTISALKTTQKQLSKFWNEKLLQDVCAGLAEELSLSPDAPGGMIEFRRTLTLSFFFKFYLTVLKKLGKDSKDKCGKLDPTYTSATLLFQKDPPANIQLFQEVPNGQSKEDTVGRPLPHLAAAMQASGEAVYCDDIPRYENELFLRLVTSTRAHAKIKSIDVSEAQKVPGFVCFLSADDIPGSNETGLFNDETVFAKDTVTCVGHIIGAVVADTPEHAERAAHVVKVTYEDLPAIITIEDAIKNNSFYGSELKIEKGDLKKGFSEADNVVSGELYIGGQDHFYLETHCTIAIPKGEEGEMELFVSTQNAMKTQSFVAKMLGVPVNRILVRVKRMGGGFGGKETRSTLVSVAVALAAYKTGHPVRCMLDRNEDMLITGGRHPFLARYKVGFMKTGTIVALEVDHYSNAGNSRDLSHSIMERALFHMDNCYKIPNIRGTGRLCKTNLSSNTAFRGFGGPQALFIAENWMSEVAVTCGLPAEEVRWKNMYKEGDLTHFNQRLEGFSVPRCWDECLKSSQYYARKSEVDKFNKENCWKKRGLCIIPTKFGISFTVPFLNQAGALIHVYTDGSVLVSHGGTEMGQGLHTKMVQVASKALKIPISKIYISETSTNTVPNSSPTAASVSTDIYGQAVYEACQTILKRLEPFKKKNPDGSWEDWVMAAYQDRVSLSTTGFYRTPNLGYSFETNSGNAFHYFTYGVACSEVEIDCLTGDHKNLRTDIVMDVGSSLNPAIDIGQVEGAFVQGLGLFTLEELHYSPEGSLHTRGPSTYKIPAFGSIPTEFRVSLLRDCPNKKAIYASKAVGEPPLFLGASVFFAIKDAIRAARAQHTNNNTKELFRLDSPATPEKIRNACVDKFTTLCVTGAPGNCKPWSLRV

[3] = molecular target: T2, Xanthine dehydrogenase/oxidase; assay: Inhibition of bovine xanthine oxidase using xanthine as substrate by measuring uric acid formation measured 30 secs interval for 2 mins by spectrophotometric analysis
[4] = molecular target: T1, Xanthine dehydrogenase/oxidase; assay: Inhibition of human Xanthine oxidase
[5] = molecular target: T2, Xanthine dehydrogenase/oxidase; assay: Inhibition of bovine milk xanthine oxidase using xanthine as substrate preincubated for 30 mins followed by substrate addition by spectrophotometric analysis
[6] = molecular target: T1, Xanthine dehydrogenase/oxidase; assay: Inhibition of Xanthine oxidase (unknown origin) using xanthine as substrate preincubated for 30 mins followed by substrate addition by spectrophotometric analysis

T1 sequence (P47989 whole entry): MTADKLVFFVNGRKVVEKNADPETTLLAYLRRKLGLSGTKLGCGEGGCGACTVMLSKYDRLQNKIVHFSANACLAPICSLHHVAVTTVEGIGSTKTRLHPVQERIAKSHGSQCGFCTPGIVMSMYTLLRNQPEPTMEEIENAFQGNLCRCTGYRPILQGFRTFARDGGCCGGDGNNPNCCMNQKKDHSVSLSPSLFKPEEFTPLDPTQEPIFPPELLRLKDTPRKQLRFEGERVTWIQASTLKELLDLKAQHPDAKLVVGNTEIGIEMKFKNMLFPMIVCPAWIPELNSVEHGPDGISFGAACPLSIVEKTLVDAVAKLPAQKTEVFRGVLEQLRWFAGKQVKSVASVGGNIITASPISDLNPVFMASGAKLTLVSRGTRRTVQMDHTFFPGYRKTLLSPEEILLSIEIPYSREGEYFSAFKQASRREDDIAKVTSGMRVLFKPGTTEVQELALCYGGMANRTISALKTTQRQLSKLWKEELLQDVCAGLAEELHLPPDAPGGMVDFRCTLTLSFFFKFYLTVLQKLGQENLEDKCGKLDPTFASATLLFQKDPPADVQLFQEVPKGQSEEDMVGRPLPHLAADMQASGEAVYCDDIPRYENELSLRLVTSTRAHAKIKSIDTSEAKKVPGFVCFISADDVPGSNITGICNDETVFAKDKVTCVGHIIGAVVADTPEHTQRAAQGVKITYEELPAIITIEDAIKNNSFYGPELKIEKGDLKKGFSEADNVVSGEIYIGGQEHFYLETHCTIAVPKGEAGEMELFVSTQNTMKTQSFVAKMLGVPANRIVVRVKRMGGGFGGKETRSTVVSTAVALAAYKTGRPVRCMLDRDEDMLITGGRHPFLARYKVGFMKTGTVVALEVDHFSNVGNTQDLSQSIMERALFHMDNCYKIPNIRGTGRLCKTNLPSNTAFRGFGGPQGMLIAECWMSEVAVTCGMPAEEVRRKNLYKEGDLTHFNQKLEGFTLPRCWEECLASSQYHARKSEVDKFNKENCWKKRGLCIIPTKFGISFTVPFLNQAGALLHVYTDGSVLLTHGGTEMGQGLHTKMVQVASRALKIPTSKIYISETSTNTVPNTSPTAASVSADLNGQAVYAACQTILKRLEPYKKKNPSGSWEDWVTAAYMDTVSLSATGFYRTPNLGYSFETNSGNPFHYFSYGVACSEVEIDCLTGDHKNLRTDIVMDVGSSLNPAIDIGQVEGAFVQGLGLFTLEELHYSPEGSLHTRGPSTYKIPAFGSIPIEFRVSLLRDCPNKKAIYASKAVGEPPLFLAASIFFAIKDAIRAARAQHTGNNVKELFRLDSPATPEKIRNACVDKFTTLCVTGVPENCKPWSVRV

Row | SMILES | IC50 [1] | other results
1 | OCc1nnn(Cc2cccc(Br)c2)c1CO | 710 nM | –
2 | Cc1c(/N=C/c2ccc(C(=O)Nc3nc4ccc(S(C)(=O)=O)cc4s3)cc2)c(=O)n(-c2ccccc2)n1C | 2220 nM | –
3 | C=Cc1ccc(C[n+]2cn(Cc3ccc(SC)cc3)c3ccccc32)cc1 | 590 nM | –
4 | N#Cc1cc[n+](Cc2ccc(-c3ccc(C[n+]4ccc(C#N)c(C(=O)O)c4)cc3)cc2)cc1C(=O)O | – | IC50 [2]: 394 nM
5 | COc1ccc2c(c1)C(=O)C(=O)N2CCn1cc(COc2cc(=O)oc3ccccc23)nn1 | – | IC50 [3]: 6.5 µM
6 | O=C1CCC(Nc2nc3cc(C(=O)Nc4cc(O)c(O)c(O)c4)ccc3n2Cc2ccc(O)cc2)C(=O)N1 (stereo unspecified) | 18400 nM | –
7 | O=c1[nH]c(-c2ccc(OCC3CCCCC3)c(-n3cnnn3)c2)no1 | 121 nM | –
8 | Oc1ccc(/C=C/c2cc(O)cc3oc(-c4ccc(O)cc4)c(-c4cc(O)cc(O)c4)c23)cc1 | 12300 nM | –
9 | COc1ccc([C@@H]2C/C(=N\c3ccc([N+](=O)[O-])cc3Cl)c3c(O)cc(O[C@H]4O[C@@H](O[C@H]5O[C@@H](C)[C@H](O)[C@@H](O)[C@H]5O)[C@H](O)[C@@H](O)[C@@H]4O)cc3O2)cc1O | – | IC50 [4]: 263 nM
10 | CCn1c(O)c(C(c2ccc(Br)cc2)c2c(O)n(CC)c(=S)n(CC)c2=O)c(=O)n(CC)c1=S | 1790 nM | –
11 | O=c1cc(O)cc(/C=C/c2ccc(O)c(O)c2)o1 [HISPIDIN] | – | IC50 [5]: 39.7 µM
12 | O=[N+]([O-])c1ccc(-c2cnc(-c3ccc(Br)cc3)s2)cc1 | 100 nM | –
13 | C[C@@H]1O[C@@H](OC[C@H]2O[C@@H](Oc3c(-c4ccc(O)c(O)c4)oc4cc(O)cc(O)c4/c3=N\Nc3ccccc3)[C@H](O)[C@@H](O)[C@@H]2O)[C@H](O)[C@H](O)[C@H]1O | 4870 nM | –
14 | COc1cc2ccc(C(=O)NCCCCc3ccc(O)c(O)c3)cc2cc1OC | 13100 nM | –
15 | Nc1ccc(O)c(/N=N/c2ncc(-n3cc4c(=O)ncnc-4[nH]3)[nH]2)c1 | – | IC50 [6]: 600 nM
16 | COc1ccc(C(=O)/C=C/c2ccc(O)cc2)c(OC)c1 | 121 nM | –
